Measured values from patent publication US12329737B2, “Dendrilla membranosa compounds, derivatives thereof, and uses thereof” (UNIVERSITY OF SOUTH FLORIDA, priority 2018, dated 2025).
≈ marks a conversion by molar mass, not a printed value.

How the values were obtained:
J774A.1 = experiment: mammalian cytotoxicity assay; format: cell-based
[1] = system: multidrug resistant S. aureus biofilm; experiment: minimum biofilm eradication concentration (MBEC), MRSA biofilm; format: cell-based; details: for MBEC90: 90% of population eradicated compared to no treatment
Source text: Each sample tested in triplicate for all concentrations. Calculated based on no drug controls and represented as a log 10 scale. Error=±SEM. MBEC 90/50: level to which 90% or 50% of the population was eradicated compared to no treatment.

MRSA = experiment: standard MRSA assay (MIC); format: cell-based; details: Staphylococcus aureus
MRSA biofilm = experiment: standard biofilm assay; format: cell-based, Staphylococcus aureus

SMILES | Cytotoxicity (μM) against strain J774A.1 (J774A.1) [µM] | other results
CC(=O)O[C@@H]1OC2OC(=O)[C@H](C)C3=C([C@@]4(C)CCCC(C)(C)C4)CCC1C32 (stereo partly drawn) [Compound 2, tetrahydroaplysulphurin] | >133 | –
CC(=O)O[C@@H]1OC2OC(=O)[C@H](C)c3c([C@@]4(C)CCCC(C)(C)C4)ccc1c32 (stereo partly drawn) [Compound 1, aplysulphurin] | 12.3 | –
CCC1=C(C=O)[C@H](C(=O)OC)CC[C@@H]1[C@@]1(C)CCCC(C)(C)C1 [Compound 17] | – | MBEC90 [1]: 50 mg/mL
CO[C@H]1OC(=O)[C@H](C)c2c([C@@]3(C)CCCC(C)(C)C3)ccc(C=O)c21 [Compound 5, membranoid A] | 54.6 | –
CO[C@@H]1O[C@H](OC)c2c1ccc([C@@]1(C)CCCC(C)(C)C1)c2[C@@H](C)C(=O)O [Compound 8, membranoid D] | >133 | MRSA biofilm bioactivity [1]: lacked MRSA biofilm bioactivity
C[C@H]1C(=O)O[C@@H](O)c2c(C=O)ccc([C@@]3(C)CCCC(C)(C)C3)c21 [Compound 10, membranoid G] | >151 | –
CO[C@H]1O[C@@H](OC)c2c1ccc([C@@]1(C)CCCC(C)(C)C1)c2[C@@H](C)C(=O)O [Compound 9, membranoid E] | 95 | –
CC(=O)O[C@@H]1OC2OC(=O)C3=C(C)C([C@@]4(C)CCCC(C)(C)C4)CCC1C32 (stereo partly drawn) [Compound 24, Darwinolide] | 20.13 | MIC (MRSA): ~133 µM (≈ 50 µg/mL); MIC in a standard biofilm assay (MRSA biofilm): 33.2 µM (≈ 12.5 µg/mL); MBEC90 [1]: 35 mg/mL; mammalian (J773) toxicity (J774A.1; J773 cells, mammalian cytotoxicity assay): 73.4 µM
CO[C@@H]1O[C@@H](OC(C)=O)c2ccc([C@@]3(C)CCCC(C)(C)C3)c([C@@H](C)C(=O)O)c21 [Compound 11, membranoid X] | 62.9 | –
COC(=O)[C@H](C)c1c([C@@]2(C)CCCC(C)(C)C2)ccc2c1[C@H](O)OC2=O [Compound 12, membranoid Y] | >139 | –
COC(=O)[C@H](C)C1=C([C@@]2(C)CCCC(C)(C)C2)CCC2COC(=O)C12 (stereo partly drawn) [Compound 4, tetrahydromembranolide] | 64.9 | –
C[C@@H](CO)c1c([C@@]2(C)CCCC(C)(C)C2)ccc(CO)c1CO [Compound 20, Mebranolide triol] | – | MRSA biofilm bioactivity [1]: lacked MRSA biofilm bioactivity
CO[C@H]1O[C@H](OC)c2c1ccc([C@@]1(C)CCCC(C)(C)C1)c2[C@@H](C)C(=O)O [Compound 6, membranoid B] | >133 | –
CC(=O)O[C@@H]1O[C@H](OC(C)=O)[C@H]2C(=O)[C@@H]([C@@]3(C)CCCC(C)(C)C3)CC[C@@H]12 [Compound 19, keto-9, 11-dihydrogracilin A] | – | MBEC90 [1]: 50 mg/mL
CC(=O)O[C@@H]1OC2OC(=O)[C@H](C)[C@@]34OO[C@@]([C@@]5(C)CCCC(C)(C)C5)(CCC1C23)O4 (stereo partly drawn) [Compound 18, Tetrahydroaplytrioxolane] | – | MRSA biofilm bioactivity [1]: lacked MRSA biofilm bioactivity
CO[C@@H]1O[C@@H](OC)c2c1ccc([C@@]1(C)CCCC(C)(C)C1)c2[C@@H](C)C(=O)O [Compound 7, membranoid C] | >133 | MRSA biofilm bioactivity [1]: lacked MRSA biofilm bioactivity
COC(=O)[C@H](C)c1c([C@@]2(C)CCCC(C)(C)C2)ccc2c1C(=O)OC2 [Compound 3, membranolide] | 76.8 | MBEC90 [1]: < 25 mg/mL
